Measured values published in patent US20070010669A1, “Novel class of cytodifferentiating agents and histone deacetylase inhibitors, and methods of use thereof” (priority 1999, published 2007).
Where two headings read alike, the source gives them in different places.

Assays:
[1] = system: Murine erythroleukemia (MEL) cells; assay: MEL cell differentiation assay (benzidine assay; cell growth by Coulter Counter); assay type: cell-based; settings: for MEL Differentiation % B+ / MEL Differentiation Opt.: Table 1; for MEL Differentiation % B+: benzidine-positive cells at Opt. concentration; for MEL Differentiation Opt.: optimal concentration; for MEL Diff Cells/ml × 10^−5: cell growth
Experimental: (§1) The MEL cell differentiation assay was used to assess the ability of Compound 1 to induce terminal differentiation. MEL cells (logarithmically dividing) were cultured with the indicated concentrations of Compound 1. Following a 5-day culture period, cell growth was determined using a Coulter Counter and differentiation was determined microscopically using the benzidine assay to determine hemoglobin protein accumulation on a per cell basis.
as §1, with “2” for “1”, “2.” for “1.”, “period” for “period, cell growth was determined using a Coulter Counter and”
as §1, with “3” for “1”, “3.” for “1.”, “period” for “period, cell growth was determined using a Coulter Counter and”, “microsdopically” for “microscopically”
as §1, with “4” for “1”, “4.” for “1.”, “period” for “period, cell growth was determined using a Coulter Counter and”
All the compounds which were prepared were tested. […] Table 2 is compiled from experiments similar to the experiments described in Examples 7-10 above.

HDAC = HDAC (Homo sapiens, UniProt Q13547); assay: Inhibition of the enzyme HDAC (Examples 12 and 13); assay type: biochemical; settings: read-out: ID50 as inhibitor of HDAC
[2] = target: T1, affinity purified human epitope-tagged (Flag) HDAC1 (Homo sapiens, UniProt Q13547); assay: Histone Deacetylase (HDAC) enzymatic activity, [3H]acetyl-labeled histone substrate; assay type: biochemical; parameters: Flag
Experimental: (§2) Substrate ([^3H]acetyl-labeled murine erythroleukemia cell-derived histone) was added and the samples were incubated for 20 min at 37° C. in a total volume of 30 μl. The reaction were then stopped and released acetate was extracted and the amount of radioactivity released determined by scintillation counting.
as §2, with “Substrate ([^3H]acetyl-labelled” for “Substrate ([^3H]acetyl-labeled”, “The reactions” for “The reaction”, “and relaesed” for “and released”
as §2, with “([^3H]acetyl-labelled” for “([^3H]acetyl-labeled”, “reactions” for “reaction”
The effect was assayed by incubating the enzyme preparation in the absence of substrate on ice for 20 minutes with the indicated amounts of compound. Substrate([^3H]acetyl-labeled murine erythroleukemia cell-derived histones) was added and the samples were incubated for 20 minutes at 37° C. in a total volume of 30 μl. The reactions were then stopped and released acetate was extracted and the amount of radioactivity released determined by scintillation counting.

[3] = target: T1, affinity purified human epitope-tagged (Flag) HDAC1; settings: cited from earlier work
[4] = system: acetylated histones H3 and H4 in peripheral blood mononuclear cells; assay: Acetylated histones in peripheral blood mononuclear cells of patients under treatment; assay type: in vivo; settings: IV infusion daily ×3, FIG. 10
Experimental: FIG. 10. SAHA causes accumulation of acetylation histones H3 and H4 in peripheral blood […] cells in patients. SAHA was administered by IV infusion daily ×3. Samples were isolated before (Pre), following infusion (Post) and 2 hours after infusion.
The in vivo effect of SAHA has been studied using the CWR22 human prostate xenograft in mice (68).

HDAC3 = HDAC3 (Homo sapiens, UniProt O15379); settings: cited from earlier work
[5] = system: CWR22 human prostate xenograft; settings: 50 mg/kg/day
Text: SAHA is currently in Phase I Clinical Trials in patients with solid tumors.

T1 sequence (Q13547 whole entry): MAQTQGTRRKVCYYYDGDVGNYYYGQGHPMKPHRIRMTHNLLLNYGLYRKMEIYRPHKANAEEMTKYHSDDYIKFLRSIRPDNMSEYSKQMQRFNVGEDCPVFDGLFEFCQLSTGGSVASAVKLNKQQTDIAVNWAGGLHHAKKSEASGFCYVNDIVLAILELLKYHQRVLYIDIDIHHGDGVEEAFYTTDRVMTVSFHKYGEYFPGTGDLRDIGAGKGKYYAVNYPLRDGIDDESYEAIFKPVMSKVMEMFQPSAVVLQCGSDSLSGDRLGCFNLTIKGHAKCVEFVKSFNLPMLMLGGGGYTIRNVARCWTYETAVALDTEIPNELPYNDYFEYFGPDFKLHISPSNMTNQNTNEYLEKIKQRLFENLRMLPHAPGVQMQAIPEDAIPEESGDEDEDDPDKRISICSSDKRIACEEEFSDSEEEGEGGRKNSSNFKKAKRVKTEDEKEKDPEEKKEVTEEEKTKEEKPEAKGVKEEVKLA
HDAC, sequence (Q13547 whole entry): as above
HDAC3, sequence (O15379 whole entry): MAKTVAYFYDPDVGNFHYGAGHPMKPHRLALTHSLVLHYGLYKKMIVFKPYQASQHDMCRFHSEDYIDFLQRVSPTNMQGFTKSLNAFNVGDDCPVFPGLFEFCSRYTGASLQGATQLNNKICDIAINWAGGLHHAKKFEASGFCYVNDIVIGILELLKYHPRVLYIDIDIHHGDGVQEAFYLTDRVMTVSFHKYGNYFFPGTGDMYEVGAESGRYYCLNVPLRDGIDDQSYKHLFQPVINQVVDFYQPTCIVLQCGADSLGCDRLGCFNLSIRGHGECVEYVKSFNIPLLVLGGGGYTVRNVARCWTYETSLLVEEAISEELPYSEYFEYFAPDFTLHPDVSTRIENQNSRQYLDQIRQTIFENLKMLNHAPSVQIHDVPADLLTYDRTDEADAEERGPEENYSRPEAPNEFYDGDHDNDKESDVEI
HDAC3, sequence (Q9Y618 whole entry, further chain): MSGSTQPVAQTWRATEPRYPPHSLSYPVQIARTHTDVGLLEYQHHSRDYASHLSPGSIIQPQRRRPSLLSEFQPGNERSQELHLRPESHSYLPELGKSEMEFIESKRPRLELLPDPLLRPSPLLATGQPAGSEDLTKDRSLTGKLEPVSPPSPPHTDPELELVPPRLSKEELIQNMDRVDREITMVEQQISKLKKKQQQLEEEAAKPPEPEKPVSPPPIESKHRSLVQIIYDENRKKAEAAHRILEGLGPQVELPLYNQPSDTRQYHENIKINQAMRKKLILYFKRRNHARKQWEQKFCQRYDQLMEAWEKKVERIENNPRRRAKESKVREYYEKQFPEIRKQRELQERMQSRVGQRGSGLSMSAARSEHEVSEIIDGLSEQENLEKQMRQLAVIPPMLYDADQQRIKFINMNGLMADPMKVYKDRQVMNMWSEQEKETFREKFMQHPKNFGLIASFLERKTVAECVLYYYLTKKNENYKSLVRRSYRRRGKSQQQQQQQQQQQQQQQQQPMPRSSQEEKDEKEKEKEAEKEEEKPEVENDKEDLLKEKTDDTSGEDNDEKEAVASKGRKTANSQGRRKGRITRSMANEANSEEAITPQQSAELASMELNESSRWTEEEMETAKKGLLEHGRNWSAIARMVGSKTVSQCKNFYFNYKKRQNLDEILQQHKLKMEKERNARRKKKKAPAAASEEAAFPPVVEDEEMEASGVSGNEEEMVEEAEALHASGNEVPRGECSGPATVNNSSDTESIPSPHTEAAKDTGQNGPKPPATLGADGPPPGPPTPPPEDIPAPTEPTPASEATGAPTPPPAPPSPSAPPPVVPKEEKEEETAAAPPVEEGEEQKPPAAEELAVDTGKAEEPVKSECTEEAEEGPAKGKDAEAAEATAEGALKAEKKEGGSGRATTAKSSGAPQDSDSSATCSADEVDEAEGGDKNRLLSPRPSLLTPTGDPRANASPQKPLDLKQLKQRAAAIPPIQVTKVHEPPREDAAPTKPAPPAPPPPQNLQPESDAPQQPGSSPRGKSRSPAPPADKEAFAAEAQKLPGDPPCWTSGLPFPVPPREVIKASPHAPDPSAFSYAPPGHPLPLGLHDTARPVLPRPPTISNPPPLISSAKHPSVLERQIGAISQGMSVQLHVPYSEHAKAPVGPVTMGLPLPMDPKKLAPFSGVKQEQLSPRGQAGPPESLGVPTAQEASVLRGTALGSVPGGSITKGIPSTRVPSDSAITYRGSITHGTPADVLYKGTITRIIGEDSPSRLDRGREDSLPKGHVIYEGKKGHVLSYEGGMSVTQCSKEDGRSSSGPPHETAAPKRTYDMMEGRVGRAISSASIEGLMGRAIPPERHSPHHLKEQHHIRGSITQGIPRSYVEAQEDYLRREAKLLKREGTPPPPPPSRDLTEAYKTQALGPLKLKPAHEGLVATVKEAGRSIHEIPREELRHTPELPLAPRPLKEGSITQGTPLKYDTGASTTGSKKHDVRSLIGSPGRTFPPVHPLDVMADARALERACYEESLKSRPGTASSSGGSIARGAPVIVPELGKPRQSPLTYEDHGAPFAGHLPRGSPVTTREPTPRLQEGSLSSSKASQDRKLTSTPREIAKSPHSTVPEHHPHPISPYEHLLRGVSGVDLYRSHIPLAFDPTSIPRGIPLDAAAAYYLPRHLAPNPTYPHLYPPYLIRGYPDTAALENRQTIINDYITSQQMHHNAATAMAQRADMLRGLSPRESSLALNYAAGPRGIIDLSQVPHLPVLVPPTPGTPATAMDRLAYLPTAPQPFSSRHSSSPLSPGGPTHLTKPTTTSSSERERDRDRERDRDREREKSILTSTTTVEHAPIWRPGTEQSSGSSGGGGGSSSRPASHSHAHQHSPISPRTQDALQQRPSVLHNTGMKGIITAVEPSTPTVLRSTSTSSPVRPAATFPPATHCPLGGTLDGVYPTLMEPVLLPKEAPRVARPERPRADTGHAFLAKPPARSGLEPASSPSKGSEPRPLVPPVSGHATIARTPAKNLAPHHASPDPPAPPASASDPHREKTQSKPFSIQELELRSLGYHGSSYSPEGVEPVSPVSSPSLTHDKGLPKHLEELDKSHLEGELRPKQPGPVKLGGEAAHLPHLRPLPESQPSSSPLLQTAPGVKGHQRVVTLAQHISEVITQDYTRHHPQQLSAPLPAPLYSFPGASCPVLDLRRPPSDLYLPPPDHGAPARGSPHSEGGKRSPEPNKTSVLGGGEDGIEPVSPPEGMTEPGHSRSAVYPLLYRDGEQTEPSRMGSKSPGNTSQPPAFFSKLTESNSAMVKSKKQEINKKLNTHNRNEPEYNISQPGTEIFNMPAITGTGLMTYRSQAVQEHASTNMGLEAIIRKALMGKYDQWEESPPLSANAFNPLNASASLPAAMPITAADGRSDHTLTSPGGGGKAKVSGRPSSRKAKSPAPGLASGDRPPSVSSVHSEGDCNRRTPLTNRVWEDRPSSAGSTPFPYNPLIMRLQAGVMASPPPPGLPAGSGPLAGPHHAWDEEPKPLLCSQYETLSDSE

Row | SMILES | concentration able to induce MEL cell differentiation ([1]; FIGS. 1, 3, 4, 6, 5-day culture) [nM] | MEL Differentiation % B+ [1] [%] | MEL Differentiation Opt. ([1]; 5-day culture) [nM] | MEL Diff % B+ ([1]; Table 2) [%] | MEL Diff Cells/ml × 10^−5 ([1]; Table 2) [Cells/ml × 10^−5] | IC50 (HDAC; Example 12) [nM] | IC50 ([2]; FIGS. 2, 5, 7, read-out: ID50 of HDAC1 enzymatic activity) [nM] | IC50 ([2]; Table 1, read-out: HDAC Inhibition ID50) [nM] | IC50 ([2]; Table 2, unit nM, read-out: HDAC inh ID50) [nM] | optimal dose for the cytodifferentiation of MEL cells ([1]; Example 12) [µM] | MEL Diff Opt. ([1]; Table 2, cells printed in μM) [µM] | inhibition of affinity purified HDAC1 [3] | IC50 (HDAC) [nM] | acetylated histones H3 and H4 in peripheral blood mononuclear cells [4] | inhibition of affinity purified HDAC3 (HDAC3) | reduction in mean final tumor volume compared to controls [5] [%] | toxicity [5] | acetylated histones H3 and H4 in the tumor xenograft ([5]; FIG. 9)
1 | O=C(CCCCC[C@H](NC(=O)OCc1ccccc1)C(=O)Nc1cccc2cccnc12)NO [Compound 4, N-benzyloxycarbonyl-(L)-α-aminosuberoyl-8-quinolinamide-ω-hydroxamic acid] | 40 | 8 | 40 | 8 | 13 | 2.5 | < 10 | < 10 | 2.5 |  |  |  |  |  |  |  |  | 
2 | O=C(CCCCCCC(=O)Nc1ccccc1)NO [SAHA, suberoylanilide hydroxamic acid, reference compound] |  | 68 | 2500 | 68 | 3.6 |  |  |  |  | 2.5 | 2.5 | inhibits | 1000 | accumulation | inhibits | 97 | no .apparent toxicity | increase
